Source: publication PMC6877352, “Modifying the Siderophore Triacetylfusarinine C for Molecular Imaging of Fungal Infection” (Molecular imaging and biology, 2019)
Values joined by “and” are separate entries in the source; they are usually repeats but may differ in a detail not shown here. Equal entries are not always repeated. “Also recorded” adds a separate entry of the source.

How the values were obtained:
[1] = Protein binding in human serum (size exclusion spin columns); conditions: 37 °C, n = 3
Protocol: At selected time points, 25 μl of serum aliquots was applied on size exclusion spin columns MicroSpin™ G-50 (GE Healthcare, Vienna, Austria). Columns were centrifuged at 2000 rcf for 2 min to separate protein bound radiotracer (eluate) from non-protein bound radiotracer (column). Protein binding ability was determined by measuring activities of column and eluate in the gamma counter.

[2] = Stability in PBS pH 7.4 (RP-HPLC, %RCP); conditions: PBS pH 7.4, 37 °C, n = 3
Protocol: (§1) [^68Ga]siderophore (50 μl, 2 nmol) was incubated in 450 μl PBS or human serum at 37 °C. At each time point, aliquot of PBS was injected directly to RP-HPLC whereas serum aliquot was mixed with MeOH, vortexed, and centrifuged at 20,000 rcf for 2 min. Supernatant was diluted with H2O and subsequently analyzed by RP-HPLC. The stability was presented as %RCP of radiotracer (n = 3).

[3] = Stability in fresh human serum (RP-HPLC, %RCP); conditions: 37 °C, n = 3
Protocol: as §1

[4] = tested on: A. fumigatus wildtype (ATCC46645); assay: In vitro uptake assay in A. fumigatus; assay type: cell-based, Aspergillus fumigatus; conditions: iron-starvation condition, 45 min, normalized to [^68Ga]TAFC uptake from the same experiment, n = 3
Protocol: For in vitro uptake studies, A. fumigatus wildtype (ATCC46645) was used. Fungal strain was cultured at 37 °C in Aspergillus minimal medium (AMM) containing 1 % (m/v) glucose as carbon source, 20 mM glutamine as nitrogen source, salts, and trace elements. Iron-sufficient media were prepared by adding FeSO4 to a final concentration of 30 μM. For iron-deficient conditions, supplementation of iron was omitted. Iron starvation was verified by the detection of extracellular siderophore production which is suppressed by iron supplementation.
Uptake assays were performed in either iron-deficient or iron-sufficient A. fumigatus wildtype cultures. In a 96-well MultiScreen Filter Plates HTS (1 μm glass fiber filter, Merck Millipore, Darmstadt, Germany), 180 μl of A. fumigatus suspended in iron-replete or iron-depleted medium was added. [^68Ga]siderophores (approx. 1 × 10^5 cpm, 80 nM) were incubated with either PBS pH 7.4 (total series) or blocking solution (10 μM [Fe]TAFC) (non-specific series) at RT for 45 min in quadriplicates. The incubation was interrupted by suction of the medium and the plate was washed twice with ice-cold TRIS-buffered saline (10 mM, pH 7.3). The filters were isolated and the remaining activities were measured in the gamma counter. The uptake was calculated as % uptake of total activity added; each assay was repeated three times. To normalize uptake variations between different fungal cultures, the uptake of each [^68Ga]siderophore was expressed as the ratio to [^68Ga]TAFC uptake from the same experiment. The mean values of three different assays were used to quantitatively compare the difference in uptake between the compounds.

[5] = Biodistribution in healthy BALB/c mice; conditions: 90 min p.i.
Protocol: At 90 min post injetion (p.i.), mice were sacrified by cervical dislocation. Organs and tissues (blood, spleen, pancrease, stomach, intestine, kidneys, liver, heart, lung, muscle, femur) were collected and weighed. Radioactivities accumulated by tissues were measured in the gamma counter. The obtained values were expressed as the percentage of injected dose per gram tissue (%ID/g). Urine sample from each animal was injected to RP-HPLC for analysis of urinary metabolic profile of [^68Ga]siderophore.

[6] = Small animal PET/CT imaging in non-infected Lewis rats; conditions: for excretion in PET/CT images: healthy Lewis rats, 45 min p.i.; for Lung uptake (non-infected): non-infected Lewis rats, r.o. injection ~6 MBq, PET/CT 45 min p.i.
Protocol: (§2) PET and CT images were acquired with an Albira PET/SPECT/CT small animal imaging system (Bruker Biospin Corporation, Woodbridge, CT, USA). A. fumigatus infection in rats was established as described by Petrik, et al.. A group of 3 female Lewis rats (2–3 months old), healthy or lung infected, were injected retro-orbitally (r.o.) with [^68Ga] […] Animals were anesthetized with isoflurane (FORANE, Abbott Laboratories, Abbott Park, IL, USA) (2 % flow rate) and positioned prone head first in the Albira system. PET/CT imaging was started 45 min p.i. with a 10-min PET (FOV 148 mm axial) and a subsequent triple CT scanning (FOV 3 × 65 mm axial, 45 kVp, 400 μA, at 400 projections). For reconstruction, Albira software (Bruker Biosoin Corporation, Woodbridge, CZ, USA) was used involving filtered backprojection and MLEM algorithms. PMOD software (PMOD Technologies Ltd., Zurich, Switzerland) was used to analyze and view the reconstructed images.

[7] = tested on: A. fumigatus infection; assay: Small animal PET/CT imaging in rat IPA model; conditions: IPA Lewis rats (A. fumigatus lung infection), r.o. injection ~6 MBq, PET/CT 45 min p.i.
Protocol: as §2

[8] = Distribution coefficient (logD), octanol/PBS pH 7.4; assay type: physicochemical; conditions: [^68Ga]siderophore 4 μM, octanol/PBS pH 7.4, n = 5
Protocol: [^68Ga]siderophore (4 μM) in 500 μl phosphate-buffered saline (PBS), pH 7.4, was added to 500 μl octanol. The mixture was vortexed at 1400 rpm for 15 min and subsequently centrifuged at 2000 rcf for 2 min.

[9] = tested on: A. terreus wildtype strain; assay: In vitro uptake assay in A. terreus (lacks the MirB transporter); assay type: cell-based, Aspergillus terreus
Protocol: To confirm the specificity of uptake of TAFC derivatives by A. fumigatus via the MirB transporter, A. terreus, which lacks the MirB transporter, was used for in vitro uptake assay. A. terreus was grown in either iron-deficient or iron-sufficient cultures. Uptake studies were performed as described for A. fumigatus and expressed as % uptake of total activity added.

[10] = healthy BALB/c mice, i.v., n = 3

Compound | Protein binding (%) ([1]; incubation time 30 min) | Protein binding (%) ([1]; incubation time 60 min) | Protein binding (%) ([1]; incubation time 120 min) | Stability in PBS (%) ([2]; 30 min) | Stability in PBS (%) ([2]; 60 min) | Stability in PBS (%) ([2]; 120 min) | Stability in serum (%) ([3]; 30 min) | Stability in serum (%) ([3]; 60 min) | Stability in serum (%) ([3]; 120 min) | uptake ratio to [^68Ga]TAFC [4] | species detected in urine (RP-HPLC urinary metabolic profile) ([5]; BALB/c mice) | excretion ([5]; healthy BALB/c mice, i.v.) | blood levels [5, 10] | Lung uptake (non-infected) [6] | Lung uptake (infected) [7] | excretion in PET/CT images [6] | further results
CCCC(=O)NC1CCCN(O)C(=O)C=C(C)CCOC(=O)C(NC(C)=O)CCCN(O)C(=O)C=C(C)CCOC(=O)C(NC(C)=O)CCCN(O)C(=O)C=C(C)CCOC1=O (stereo not drawn) (68Ga complex, metal not drawn) [DABuFC, diacetylbutanoyl(FSC)] | 2.63 ± 1.03% | 2.92 ± 1.11% | 3.61 ± 1.19% | 99.87 ± 0.07% | 99.85 ± 0.08% | 99.79 ± 0.14% | 99.58 ± 0.04% | 99.59 ± 0.20% | 99.60 ± 0.14% | 0.87 | only intact | rapid renal excretion | < 0.1 %ID/g | 0.23 ± 0.03 %ID/g | 0.79 ± 0.15 %ID/g |  | uptake ratio to [^68Ga]TAFC ([4]; listed as [^68Ga]DABuFC): around 1; retention in the blood, spleen, and pancreas in comparison with [^68Ga]TAFC ([5]; BALB/c mice): Slightly lower retention; excretion in PET/CT images ([6]; listed as [^68Ga]DABuFC): excreted rapidly via the urinary system; also recorded: certain hepatobiliary excretion
CC1=CC(=O)N(O)CCCC(NC(=O)CCC(=O)O)C(=O)OCCC(C)=CC(=O)N(O)CCCC(NC(=O)CCC(=O)O)C(=O)OCCC(C)=CC(=O)N(O)CCCC(NC(=O)CCC(=O)O)C(=O)OCC1 (stereo not drawn) (68Ga complex, metal not drawn) [FSC(suc)3, trisuccinyl(FSC)] | 2.53 ± 0.63% | 2.96 ± 0.21% | 2.60 ± 0.62% | 99.85 ± 0.07% | 99.77 ± 0.12% | 99.72 ± 0.09% | 99.59 ± 0.08% | 99.43 ± 0.17% | 99.36 ± 0.08% | 0.01 | only intact | rapid renal excretion | < 0.1 %ID/g | 0.21 ± 0.03 %ID/g |  | excreted rapidly via the urinary system | uptake ratio to [^68Ga]TAFC ([4]; listed as [^68Ga]FSC(suc)3): less than 0.05; retention in the intestine and kidneys in comparison with [^68Ga]TAFC ([5]; BALB/c mice): Slightly lower retention; Lung uptake (infected) ([7]; listed as [^68Ga]FSC(suc)3): 0.31 ± 0.04 %ID/g and 0.3 %ID/g
CC(=O)NC1CCCN(O)C(=O)C=C(C)CCOC(=O)C(NC(C)=O)CCCN(O)C(=O)C=C(C)CCOC(=O)C(NC(C)=O)CCCN(O)C(=O)C=C(C)CCOC1=O (stereo not drawn) (68Ga complex, metal not drawn) [TAFC, triacetylfusarinine C] | 2.54 ± 1.01% | 3.55 ± 0.68% | 2.96 ± 0.33% | 99.89 ± 0.02% | 99.83 ± 0.13% | 99.73 ± 0.03% | 99.48 ± 0.29% | 99.46 ± 0.09% | 99.41 ± 0.19% | 1 | only intact | rapid renal excretion | < 0.1 %ID/g | 0.20 ± 0.03 %ID/g | 0.69 ± 0.11 %ID/g | excreted rapidly via the urinary system | 
CCC(=O)NC1CCCN(O)C(=O)C=C(C)CCOC(=O)C(NC(=O)CC)CCCN(O)C(=O)C=C(C)CCOC(=O)C(NC(=O)CC)CCCN(O)C(=O)C=C(C)CCOC1=O (stereo not drawn) (68Ga complex, metal not drawn) [TPFC, tripropanoyl(FSC)] | 2.31 ± 0.57% | 3.39 ± 0.32% | 2.65 ± 0.66% | 99.90 ± 0.02% | 99.86 ± 0.04% | 99.79 ± 0.11% | 99.67 ± 0.19% | 99.56 ± 0.23% | 99.54 ± 0.25% | 1.40 | only intact | rapid renal excretion | < 0.1 %ID/g | 0.20 ± 0.02 %ID/g | 0.63 ± 0.08 %ID/g |  | uptake ratio to [^68Ga]TAFC ([4]; listed as [^68Ga]TPFC): ~1.4; uptake in intestine [5, 10]: lower than 3 %ID/g; excretion in PET/CT images ([6]; listed as [^68Ga]TPFC): excreted rapidly via the urinary system; also recorded: certain hepatobiliary excretion
CCCC(=O)NC1CCCN(O)C(=O)C=C(C)CCOC(=O)C(NC(=O)CCC)CCCN(O)C(=O)C=C(C)CCOC(=O)C(NC(=O)CCC)CCCN(O)C(=O)C=C(C)CCOC1=O (stereo not drawn) (68Ga complex, metal not drawn) [TBuFC, tributanoyl(FSC)] |  |  |  |  |  |  |  |  |  | 0.86 |  |  |  |  |  |  | logD [8]: 0.34 ± 0.01; uptake ratio to [^68Ga]TAFC ([4]; listed as [^68Ga]TBuFC): around 1
C/C1=C/C(=O)N(O)CCCC(N)C(=O)OCC/C(C)=C\C(=O)N(O)CCCC(N)C(=O)OCC/C(C)=C\C(=O)N(O)CCCC(N)C(=O)OCC1 (stereo not drawn) (68Ga complex, metal not drawn) [FSC, fusarinine C] |  |  |  |  |  |  |  |  |  | 1.37 |  |  |  |  |  |  | uptake ratio to [^68Ga]TAFC ([4]; listed as [^68Ga]FSC): ~1.4; Uptake in A. terreus in iron-replete condition ([9]; iron-replete condition): 2 % of total activity added; Uptake in A. terreus with TAFC blocking ([9]; iron-starvation condition with TAFC blocking): 28 % of total activity added; uptake in A. terreus ([9]; iron-starvation condition, 45 min, n = 3): > 30 % of total activity added
